Experimental data taken from the supplement of paper PMC8671470.
Where a name gives a salt, the structure may show the parent alone.

test system: HL-60; assay: area under dose-response curve (viability, 1 nM-10 uM) (fraction (0-1)); higher = more sensitive; details: 72 h; co-treatment: GSK2194069 100 nM
In short: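 A rescreen of the full library used HL-60 cells in RPMI 1640 with 10% FBS on 384-well plates, run in duplicate at five tenfold concentrations (1–10,000 nM). Each screen included DMSO or 100 nM of one of three metabolic inhibitors and ran 72 h at 37 °C, 5% CO2. CellTiter-Glo viability was scaled between DMSO and 10 μM proteasome-inhibitor wells. Any area under the curve comes from four-parameter log-logistic fits with drc and PharmacoGx.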

SMILES	area under dose-response curve
CCCCCCCC/C=C\CCCCCCCC(=O)Nc1ccccc1 [Octadec-9-Enoic Acid Phenylamide]	< 0.0301
CC[C@H](C)[C@H](N)C(=O)N1CCSC1 [P32/98]	< 0.0301
OC[C@H]1O[C@@H](n2cnc3c2N=CNC[C@H]3O)C[C@@H]1O [Pentostatin]	< 0.0301
CC(C)CC(=O)N[C@H](C(=O)N[C@H](C(=O)N[C@@H](CC(C)C)[C@@H](O)CC(=O)N[C@@H](C)C(=O)N[C@@H](CC(C)C)[C@@H](O)CC(=O)O)C(C)C)C(C)C [Pepstatin A]	< 0.0301
Cc1cccc(Nc2cc(Cl)nc(SCC(=O)O)n2)c1C [Pirinixic acid]	< 0.0301
C[C@]12C=CC(=O)C=C1CC[C@@H]1[C@@H]2[C@@H](O)C[C@@]2(C)[C@H]1CC[C@]2(O)C(=O)CO [Prednisolone]	< 0.0301
N[C@@H](CC(=O)N1CCn2c(nnc2C(F)(F)F)C1)Cc1cc(F)c(F)cc1F [Sitagliptin]	< 0.0301
N#C/C(=C\c1ccc(O)cc1)C(=O)O [alpha-cyano-4-hydroxycinnamic acid]	< 0.0301

same assay, conditions: 72 h; co-treatment: pictilisib 100 nM

SMILES	area under dose-response curve
CN(CCCOc1ccc(Cc2ccccc2)cc1)CCC(=O)O	< 0.0301
COc1ccc2c(NC(=O)Nc3cccc(C(F)(F)F)n3)ccnc2c1	< 0.0301
Cc1nc(-c2ccccc2)sc1C(=O)Nc1ccc(S(N)(=O)=O)cc1	< 0.0301
C=CC(=O)c1ccc(O)cc1 [4-Acryloylphenol]	< 0.0301
O=c1cc(-c2ccccc2)oc2c1ccc1ccccc12 [Alpha-Naphtoflavone]	< 0.0301
Cc1c(Cl)cccc1S(=O)(=O)Nc1nc(CC(=O)N2CCN(C)CC2)cs1 [BVT-2733]	< 0.0301
CCc1oc2ccccc2c1C(=O)c1cc(Br)c(O)c(Br)c1 [Benzbromarone]	< 0.0301
CCOC(=O)c1sc(NC(=O)c2ccco2)c(SC#N)c1C [CBR-5884]	< 0.0301
CCCCCOC(=O)Nc1nc(=O)n([C@@H]2O[C@H](C)[C@@H](O)[C@H]2O)cc1F [Capecitabine]	< 0.0301
Cc1ccc(-c2cc(C(F)(F)F)nn2-c2ccc(S(N)(=O)=O)cc2)cc1 [Celecoxib]	< 0.0301
O=c1c(-c2ccc(O)cc2)coc2cc(O[C@@H]3O[C@H](CO)[C@@H](O)[C@H](O)[C@H]3O)ccc12 [Daidzin]	< 0.0301
C[C@H]1c2cccc(O)c2C(=O)C2C(=O)[C@]3(O)C(=O)C(C(N)=O)C(=O)[C@@H](N(C)C)[C@@H]3[C@@H](O)[C@@H]21 (stereo partly drawn) [Doxycycline]	< 0.0301
OC[C@H]1NC[C@H](O)[C@@H](O)[C@@H]1O [Duvoglustat]	< 0.0301
O=C(NCCN1CCC(n2c(O)nc3ccccc32)CC1)c1cc2cc(F)ccc2[nH]1 [FIPI]	< 0.0301
CCN(CCO)CCCC(C)Nc1ccnc2cc(Cl)ccc12 (stereo not drawn) [Hydroxychloroquine sulfate]	< 0.0301
O=C([O-])CC(O)(C(=O)[O-])C(O)C(=O)[O-].[K+].[K+].[K+] (stereo not drawn) [Hydroxycitrate]	< 0.0301
CCCCCN(C)CCC(O)(P(=O)(O)O)P(=O)(O)O [Ibandronate]	< 0.0301
Cc1cc(C(=O)NNCc2ccccc2)no1 [Isocarboxazid]	< 0.0301
CCn1c(=Cc2cccc[n+]2CC)sc(=C2Sc3ccccc3N2C)c1=O [MKT 077]	< 0.0301
COC(=O)c1cc2c(C(F)(F)F)cc(-c3ccccc3)cc2n1O [NHI-2]	< 0.0301
CCCCCCCC/C=C\CCCCCCCC(=O)Nc1ccccc1 [Octadec-9-Enoic Acid Phenylamide]	< 0.0301
CC[C@H](C)[C@H](N)C(=O)N1CCSC1 [P32/98]	< 0.0301
OC[C@H]1O[C@@H](n2cnc3c2N=CNC[C@H]3O)C[C@@H]1O [Pentostatin]	< 0.0301
CC(C)CC(=O)N[C@H](C(=O)N[C@H](C(=O)N[C@@H](CC(C)C)[C@@H](O)CC(=O)N[C@@H](C)C(=O)N[C@@H](CC(C)C)[C@@H](O)CC(=O)O)C(C)C)C(C)C [Pepstatin A]	< 0.0301
Cc1cccc(Nc2cc(Cl)nc(SCC(=O)O)n2)c1C [Pirinixic acid]	< 0.0301
C[C@]12C=CC(=O)C=C1CC[C@@H]1[C@@H]2[C@@H](O)C[C@@]2(C)[C@H]1CC[C@]2(O)C(=O)CO [Prednisolone]	< 0.0301
N[C@@H](CC(=O)N1CCn2c(nnc2C(F)(F)F)C1)Cc1cc(F)c(F)cc1F [Sitagliptin]	< 0.0301
N#C/C(=C\c1ccc(O)cc1)C(=O)O [alpha-cyano-4-hydroxycinnamic acid]	< 0.0301

test system: LAMA-84; assay: cell viability (% survival relative to DMSO control, bortezomib = 0%); higher = less cytotoxic; details: 1 nM; 72 h
In short: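 Fifteen myeloid leukaemia cell lines were exposed to compounds at 1, 10, 100, 1000 or 10000 nM in 384-well plates for 72 h at 37 °C and 5% CO2. Viability was read by CellTiter-Glo luminescence and normalised, with vehicle as 100% and a 10 µM positive control as 0%. Values are percent survival averaged over duplicates.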

SMILES	cell viability [%]
CN(CCCOc1ccc(Cc2ccccc2)cc1)CCC(=O)O	110
COc1ccc2c(NC(=O)Nc3cccc(C(F)(F)F)n3)ccnc2c1	102
